Data published in patent US9006237B2, “Fused pyrazine compounds useful for the treatment of degenerative and inflammatory diseases” (Janssen Pharmaceutica NV, priority 2007, dated 2015).

Each molecule was assayed against T1, MAPKAPK5 (Homo sapiens, UniProt Q8IW41) (assay: MAPKAP-K5 assay (FlashPlate, 33P-ATP)). Settings: 0.6 μM ATP; 3 μM peptide substrate; room temperature 30 minutes.
T1 sequence (Q8IW41 1-471 isoform Q8IW41-2): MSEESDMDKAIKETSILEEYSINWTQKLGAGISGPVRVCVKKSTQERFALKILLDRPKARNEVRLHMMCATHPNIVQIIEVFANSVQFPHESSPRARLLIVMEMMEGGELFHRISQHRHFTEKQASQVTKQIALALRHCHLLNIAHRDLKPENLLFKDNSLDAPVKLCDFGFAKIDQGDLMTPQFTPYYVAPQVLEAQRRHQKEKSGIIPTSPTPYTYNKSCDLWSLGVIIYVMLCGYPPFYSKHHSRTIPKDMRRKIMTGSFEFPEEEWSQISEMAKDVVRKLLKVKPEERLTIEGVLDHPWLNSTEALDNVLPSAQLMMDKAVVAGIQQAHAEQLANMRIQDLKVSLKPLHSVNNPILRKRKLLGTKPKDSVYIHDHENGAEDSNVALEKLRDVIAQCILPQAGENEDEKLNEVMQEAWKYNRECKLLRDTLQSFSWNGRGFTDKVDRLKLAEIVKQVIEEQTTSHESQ
Type: biochemical
Description: 3 μM MAPKAP-K5 peptide substrate

IC50	SMILES
> 1000 nM	c1nc2c(Nc3nc(CN4CCCCC4)cs3)ncc(-c3cn[nH]c3)n2n1 [Example 25, N-(5-(1H-pyrazol-4-yl)-[1,2,4]triazolo[1,5-a]pyrazin-8-yl)-4-(piperidin-1-ylmethyl)thiazol-2-amine]
501 to 1000 nM	O=C1NCc2cc(-c3cnc(Nc4ncc(C(=O)N5CCOCC5)s4)c4nccn34)ccc21 [Example 13, 5-(8-(5-(morpholine-4-carbonyl)thiazol-2-ylamino)imidazol[1,2-a]pyrazin-5-yl)isoindolin-1-one]
101 to 500 nM	CC(C)N1CCN(Cc2cnc(Nc3ncc(-c4ccc5c(c4)CNC5=O)n4ccnc34)s2)CC1 [Example 18, 5-(8-(5-((4-isopropylpiperazin-1-yl)methyl)thiazol-2-ylamino)imidazo[1,2-a]pyrazin-5-yl)isoindolin-1-one]
501 to 1000 nM	O=C1NCc2cc(-c3cnc(Nc4nnc(CCN5CCCCC5)s4)c4nccn34)ccc21 [Example 14, 5-(8-(5-(2-(piperidin-1-yl)ethyl)-1,3,4-thiadiazol-2-ylamino)imidazo[1,2-a]pyrazin-5-yl)isoindolin-1-one]
101 to 500 nM	O=C1NCc2cc(-c3cnc(Nc4ncc(CN5CCOCC5)s4)c4nccn34)ccc21 [Example 16, 5-(8-(5-(morpholinomethyl)thiazol-2-ylamino)imidazo[1,2-a]pyrazin-5-yl)isoindolin-1-one]
> 1000 nM	O=C1NCc2cc(-c3cnc(Nc4ncc(CN5CCCCC5)s4)c4nccn34)ccc21 [Example 24, 5-(8-(5-(piperidin-1-ylmethyl)thiazol-2-ylamino)imidazo[1,2-a]pyrazin-5-yl)isoindolin-1-one]
> 1000 nM	c1cn2c(-c3cn[nH]c3)cnc(Nc3ncc(CN4CCOCC4)s3)c2n1 [Example 15, N-(5-(1H-pyrazol-4-yl)imidazo[1,2-a]pyrazin-8-yl)-5-(morpholinomethyl)thiazol-2-amine]
> 1000 nM	O=C1NCc2cc(-c3cnc(Nc4nncs4)c4nccn34)ccc21 [Example 19, 5-(8-(1,3,4-thiadiazol-2-ylamino)imidazo[1,2-a]pyrazin-5-yl)isoindolin-1-one]
501 to 1000 nM	CN1CCN(c2nnc(Nc3ncc(-c4ccc5c(c4)CNC5=O)n4ccnc34)s2)CC1 [Example 20, 5-(8-(5-(4-methylpiperazin-1-yl)-1,3,4-thiadiazol-2-ylamino)imidazo[1,2-a]pyrazin-5-yl)isoindolin-1-one]
> 1000 nM	CN(C)Cc1cnc(Nc2ncc(-c3cn[nH]c3)n3ccnc23)s1 [Example 17, N-(5-(1H-pyrazol-4-yl)imidazo[1,2-a]pyrazin-8-yl)-5-((dimethylamino)methyl)thiazol-2-amine]
> 1000 nM	CC(C)N1CCN(C(=O)c2cnc(Nc3ncc(-c4cn[nH]c4)n4ccnc34)s2)CC1 [Example 23]
> 1000 nM	O=C1NCc2cc(-c3cnc(Nc4nc5c(s4)CCC5)c4nccn34)ccc21 [Example 12, 5-(8-(5,6-dihydro-4H-cyclopenta[d]thiazol-2-ylamino)imidazo[1,2-a]pyrazin-5-yl)isoindolin-1-one]

Second part, the molecule before the results:

SMILES	IC50
NC(=O)c1cc(-c2cnc(Nc3nc(CN4CCCCC4)cs3)c3ncnn23)co1 [Example 4, 4-(8-(4-(piperidin-1-ylmethyl)thiazol-2-ylamino)-[1,2,4]triazolo[1,5-a]pyrazin-5-yl)furan-2-carboxamide]	1 to 100 nM
c1nc2c(Nc3nc(CN4CCOCC4)cs3)ncc(-c3cn[nH]c3)n2n1 [Example 3, N-(5-(1H-pyrazol-4-yl)-[1,2,4]triazolo[1,5-a]pyrazin-8-yl)-4-(morpholinomethyl)thiazol-2-amine]	> 1000 nM
Cc1cnc(Nc2ncc(-c3ccc4c(c3)CNC4=O)n3ccnc23)s1 [Example 11, 5-(8-(5-methylthiazol-2-ylamino)imidazo[1,2-a]pyrazin-5-yl)isoindolin-1-one]	501 to 1000 nM
O=C1NCc2cc(-c3cnc(Nc4nccs4)c4nccn34)ccc21 [Example 6, 5-(8-(thiazol-2-ylamino)imidazo[1,2-a]pyrazin-5-yl)isoindolin-1-one]	101 to 500 nM
O=C1NCc2cc(-c3cnc(Nc4nc(CN5CCOCC5)cs4)c4nccn34)ccc21 [Example 1, 5-(8-(4-(morpholinomethyl)thiazol-2-ylamino)imidazo[1,2-a]pyrazin-5-yl)isoindolin-1-one]	101 to 500 nM
Cc1nc(Nc2ncc(-c3ccc4c(c3)CNC4=O)n3ccnc23)sc1C(=O)N(C)C [Example 10, N,N,4-trimethyl-2-(5-(1-oxoisoindolin-5-yl)imidazo[1,2-a]pyrazin-8-ylamino)thiazole-5-carboxamide]	101 to 500 nM
c1csc(Nc2ncc(-c3cn[nH]c3)n3ccnc23)n1 [Example 7, N-(5-(1H-pyrazol-4-yl)imidazo[1,2-a]pyrazin-8-yl)thiazol-2-amine]	> 1000 nM
O=C1NCc2cc(-c3cnc(Nc4nc(CN5CCCCC5)cs4)c4nccn34)ccc21 [Example 9, 5-(8-(4-(piperidin-1-ylmethyl)thiazol-2-ylamino)imidazo[1,2-a]pyrazin-5-yl)isoindolin-1-one]	1 to 100 nM
